For series [1], the system named is paw oedemas, caused by the administration of kaolin. As to the kind of experiment: kaolin paw oedema, antiphlogistic action in rats. The series is classed as in vivo. The text has this:
The anti-inflammatory action was detected in paw oedemas, caused by the administration of kaolin, in rats.
In addition to the effects described for compound A, it could also be shown that the other derivatives (see Table 2) likewise have a powerful anti-inflammatory action. The minimum doses which still cause a clearly detectable effect on the paw oedema after the administration of kaolin are listed in Table 2.
Rats, kaolin oedema, intramuscularly, n = 10/dose group

The next series deals with albumin oedema. The experiment in a line: albumin oedema. The class given is in vivo. The conditions noted are these: im; intramuscularly. The text has this: (§1) Furthermore, A also has an action on other inflammation models. The ED50 values which follow are found (mg/kg; intramuscularly): formalin oedema 5.4, albumin oedema 6.3, yeast oedema 27.4, concanavalin oedema 3.4 and trypsin oedema 2.0.

The next series deals with rats. The conditions noted are these: intramuscular.
The nature of a further series: in vivo. The conditions noted are these: rat.
A further series concerns concanavalin oedema. The experiment in a line: concanavalin oedema. The series is classed as in vivo. The settings on record: im; intramuscularly.
Excerpt: as §1

Series [2] is described as follows: stomach ulcer (ulcerogenic action) in rats. The settings on record: rat, in vivo.
Series [3] can be described thus: comparison of the therapeutic range. The settings on record: rat, in vivo.
The next series concerns kaolin oedema. As to the kind of experiment: comparison of the therapeutic range.
For a further series, the system named is yeast oedema. The experiment in a line: yeast oedema. The series is classed as in vivo. The settings on record: im; intramuscularly.
Excerpt: as §1

A further series relates to trypsin oedema. As to the kind of experiment: trypsin oedema. The class given is in vivo. The conditions noted are these: im; intramuscularly.
Excerpt: as §1

In the next series the test system is formalin oedema. As to the kind of experiment: formalin oedema. The series is classed as in vivo. The conditions noted are these: im; intramuscularly.
Excerpt: as §1

The test system of series [4] is paw oedemas, caused by the administration of kaolin. As to the kind of experiment: kaolin paw oedema, antiphlogistic action in rats. The series is classed as in vivo. The settings on record: Rattus norvegicus, read-out: Kaolin oedema ED50.
The mark [5] stands for this setting: Rattus norvegicus, im, rats, kaolin oedema, intramuscularly, n = 10/dose group, read-out: Inhibition in % of the controls.
Where [6] appears, read: Rattus norvegicus, im, rats, intramuscularly, n = 10/dose group, read-out: ED50 (kaolin oedema).
[7] abbreviates: po, Therapeutic range LD50 / ED50 kaolin oedema, rats.

Entries after “also recorded” stand apart in the source; their conditions may differ. Read-outs that look alike come from different tables or passages of the source.

On to `CC(C)CSC(=O)CCS(=O)(=O)CC(C)C` [(CH3)2 CHCH2 SO2 CH2 CH2 COSCH2 CH(CH3)2, S-Isobutyl 3-isobutylsulphonylpropionothioate], for which the inhibition in vivo at 12.5 mg/kg in [1] (setting [5]) came out at 42%.
Consider `CC(C)SCCC(=O)SC(C)C` [(CH3)2 CHSCH2 CH2 COSCH(CH3)2, S-Isopropyl 3-isopropylthiopropionothioate], for which, in series [1] (setting [5]), the inhibition in vivo at 25 mg/kg worked out at 63.2%.
For the molecule `CC(C)SC(=O)CC[S+]([O-])C(C)C` (centres unmarked) [(CH3)2 CHSOCH2 CH2 COSCH(CH3)2, S-Isopropyl 3-isopropylsulphinylpropionothioate], the inhibition in vivo at 12.5 mg/kg in [1] (setting [5]) turned out to be 22.7%.
Still for that read-out and setting: the value for `CC(C)(C)SCCC(=O)SC(C)(C)C` [(CH3)3 CSCH2 CH2 COSC(CH3)3, S-tert.-butyl 3-tert.-butylthiopropionothioate] was 23.3%.
As to `CSCCC(=O)SC` [A, S-methyl 3-methylthiopropionothioate], the ED50 was found to be 6.3 mg/kg with albumin oedema; 4.85 µmol/kg in [1] (Rattus norvegicus, im, rats, intramuscular, read-out: Kaolin oedema ED50); 3.4 mg/kg in the series on concanavalin oedema; 27.4 mg/kg in the series on yeast oedema; 2 mg/kg with trypsin oedema; 5.4 mg/kg in the series with formalin oedema. Besides, the “antiphlogistic (anti-inflammatory) action, in words” value in series [1] (rat, in vivo) is “very pronounced antiphlogistic action”. In addition, the LD50 is 4,587 μmols/kg in the series with rats and 4590 µmol/kg in “in vivo” (im). In addition, in series [2] (im), the TD50 stood at 256 µmol/kg. The selectivity ratio is 52.9 in series [3] and 946 in series [3] (Therapeutic range LD50 / ED50 kaolin oedema, rats, intramuscular). Further, in the series with kaolin oedema (rat, in vivo), the “therapeutic range, in words” value is listed as “wide therapeutic range; also recorded: unexpected favourable therapeutic range”.
On to `CCSCCC(=O)SCC` [C2 H5 SCH2 CH2 COSC2 H5, S-Ethyl 3-ethylthiopropionothioate], for which the ED50 in series [1] (setting [6]) was found to be 3.75 mg/kg. Besides, the inhibition in vivo at 2.5 mg/kg in series [1] (Rattus norvegicus, im, rats, kaolin oedema, intramuscularly, dose 2.50 mg/kg, n = 10/dose group, read-out: Inhibition in % of the controls) came to 58.2%.
Take `CCCSCCC(=O)SCCC` [C3 H7 SCH2 CH2 COSC3 H7, S-Propyl 3-propylthiopropionothioate]: the inhibition in vivo at 25 mg/kg in series [1] (setting [5]) turned out to be 68.5%.
For `CCCSC(=O)CC[S+]([O-])CCC` (centres unmarked) [C3 H7 SOCH2 CH2 COSC3 H7, S-Propyl 3-propylsulphinylpropionothioate], the inhibition in vivo at 100 mg/kg in [1] (setting [5]) worked out at 73%.
For the molecule `CCCCSCCC(=O)SCCCC` [C4 H9 SCH2 CH2 COSC4 H9, S-Butyl 3-butylthiopropionothioate], the inhibition in vivo at 50 mg/kg in [1] (setting [5]) amounted to 77.2%.
For `CCCCSC(=O)CC[S+]([O-])CCCC` (centres unmarked) [C4 H9 SOCH2 CH2 COSC4 H9, S-Butyl 3-butylsulphinylpropionothioate], the inhibition in vivo at 100 mg/kg in series [1] (setting [5]) amounted to 73%.
As for `C=C(C)C(=O)SC` [CH2 =C(CH3)COSCH3, S-methyl methacrylthioate], the inhibition in vivo at 5 mg/kg in [1] (Rattus norvegicus, im, rats, kaolin oedema, intramuscularly, dose 5.00 mg/kg, n = 10/dose group, read-out: Inhibition in % of the controls) was found to be 21.8%.
As for `C=CC(=O)SCC` [CH2 =CHCOSC2 H5, S-ethyl acrylthioate], the ED50 in series [1] (setting [6]) amounted to 1.5 mg/kg. For the same molecule, the inhibition in vivo at 0.32 mg/kg in series [1] (Rattus norvegicus, im, rats, kaolin oedema, intramuscularly, dose 0.32 mg/kg, n = 10/dose group, read-out: Inhibition in % of the controls) is 18.5%.
With `CC=CC(=O)SC` [CH3 CH=CHCOSCH3, S-methyl crotonylthioate], the inhibition in vivo at 12.5 mg/kg in series [1] (setting [5]) amounted to 16%.
Consider `CCOC(=O)CCSC` [CH3 SCH2 CH2 COOC2 H5, Ethyl 3-methylthiopropionate], for which, in series [1] (setting [5]), the inhibition in vivo at 25 mg/kg was found to be 16%.
Consider `CSCC(C)C(=O)SC` (centres unmarked) [CH3 SCH2 CH(CH3)COSCH3, S-methyl 3-methylthio-2-propylcarbonylthioate], for which the ED50 in [1] (setting [6]) stood at 4.5 mg/kg. In addition, in series [1] (Rattus norvegicus, im, rats, kaolin oedema, intramuscularly, dose 0.65 mg/kg, n = 10/dose group, read-out: Inhibition in % of the controls), the inhibition in vivo at 0.65 mg/kg turned out to be 16.6%.
On to `CSC(=O)CC[S+](C)[O-]` (centres unmarked) [CH3 SOCH2 CH2 COSCH3, S-Methyl 3-methylsulphinylpropionothioate], for which the ED50 in series [1] (setting [6]) was 1.8 mg/kg. The inhibition in vivo at 3.12 mg/kg in [1] (Rattus norvegicus, im, rats, kaolin oedema, intramuscularly, dose 3.12 mg/kg, n = 10/dose group, read-out: Inhibition in % of the controls) turned out to be 10.2%.
With `O=C(O)c1ccccc1Nc1cccc(C(F)(F)F)c1` [Flufenamic acid], in series [4] (rats, oral), the ED50 was 36.2 µmol/kg. The LD50 in the series “in vivo” (po) worked out at 2040 µmol/kg. This molecule also yielded a TD50 in series [2] (po) of 55.1 µmol/kg. In [3] (setting [7]), the selectivity ratio turned out to be 56.3. Moreover, in the series with kaolin oedema (rats, oral), the “Therapeutic range ED50 ulcer / ED50 kaolin oedema” value was 1.52.
In the case of `O=C(O)CCS` [HSCH2 CH2 COOH, 3-mercaptopropionic acid], in series [1] (Rattus norvegicus, im, rats, kaolin oedema, intramuscularly, dose 20.00 mg/kg, n = 10/dose group, read-out: Inhibition in % of the controls), the inhibition in vivo at 20 mg/kg came to 8.5%.
Consider `COc1ccc2c(c1)c(CC(=O)O)c(C)n2C(=O)c1ccc(Cl)cc1` [Indometacin], for which the ED50 in [4] (po) came out at 2.9 µmol/kg. In addition, in “in vivo” (po), the LD50 turned out to be 68 µmol/kg. In addition, in series [2] (rats, oral, read-out: Stomach ulcer ED50), the TD50 was found to be 11.1 µmol/kg. In addition, the selectivity ratio in [3] (po, Therapeutic range ED50 ulcer / ED50 kaolin oedema, rats) was found to be 3.81; in series [3] (setting [7]), 23.4.
Turning to `CCCCC1C(=O)N(c2ccccc2)N(c2ccccc2)C1=O` [Phenylbutazone], the ED50 in [4] (rats, oral) was found to be 122 µmol/kg. In series [2] (po), this molecule showed a TD50 of 182 µmol/kg.
With `CC(C)CSCCC(=O)SCC(C)C` [S-Isobutyl 3-isobutylthiopropionothioate], the inhibition in vivo at 50 mg/kg in series [1] (setting [5]) came to 77.2%.
Regarding `CC(C)CSC(=O)CC[S+]([O-])CC(C)C` (centres unmarked) [S-isobutyl 3-isobutylsulphinylpropionothioate], the inhibition in vivo at 12.5 mg/kg in series [1] (setting [5]) came to 17.9%.
As for `CCC(C)SC(=O)CC[S+]([O-])C(C)CC` (centres unmarked) [S-sec.-Butyl 3-sec.-butylsulphinylpropionothioate], the inhibition in vivo at 100 mg/kg in [1] (setting [5]) amounted to 90.5%.
On to `CCC(C)SC(=O)CCS(=O)(=O)C(C)CC` (centres unmarked) [S-sec.-Butyl 3-sec.-butylsulphonylpropionothioate], for which, in series [1] (setting [5]), the inhibition in vivo at 12.5 mg/kg came to 33%.
Consider `CCC(C)SCCC(=O)SC(C)CC` (centres unmarked) [S-sec.-Butyl 3-sec.-butylthiopropionothioate], for which the inhibition in vivo at 50 mg/kg in [1] (setting [5]) worked out at 72%.
